The results in this text go back to patent US10865191B2, “Heterocyclic compounds useful as modulators of TNF alpha” (BRISTOL-MYERS SQUIBB COMPANY, priority 2015, dated 2020).

Some results are limits rather than exact numbers.

The target of the first test is TNFα (Homo sapiens, UniProt P01375). Nature of the test: TNF induced HEK-Blue assay (NF-kB-driven secreted alkaline phosphatase reporter). The test is classed as cell-based. To be noted: TNF induced HEK-Blue assay IC50 value, TNFα 0.5 ng/mL, HEK-Blue-CD40L cells, 18 h. A digest of the protocol: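 HEK-Blue-CD40L cells (NF-kB-driven SEAP reporter), 20,000/well, added after 30 min pre-incubation of compound (0.004–25 μM final) with TNFα 0.5 ng/mL final at 37 °C; 18 h incubation. SEAP read with QUANTI-Blue at 620 nm; IC50 from 4-parameter logistic fit, normalized to unstimulated and stimulated DMSO controls.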
TNFα, sequence (P01375 77-233 limits assumed): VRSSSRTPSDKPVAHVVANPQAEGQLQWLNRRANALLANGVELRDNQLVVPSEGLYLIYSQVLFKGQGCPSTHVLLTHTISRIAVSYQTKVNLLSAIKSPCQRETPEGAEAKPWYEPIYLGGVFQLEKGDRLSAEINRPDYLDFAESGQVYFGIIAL
In turn, `C[C@@H](Nc1c(Cl)cnc2ccc(-c3cnc(N4CCS(=O)(=O)CC4)nc3)cc12)c1ccccc1F` [Example 225, (R)-4-(5-(3-chloro-4-((1-(2-fluorophenyl)ethyl)amino)quinolin-6-yl)pyrimidin-2-yl)thiomorpholine 1,1-dioxide] had an IC50 of less than 1 µM.
Turning to `C[C@@H](Nc1c(Cl)cnc2ccc(-c3cnc(C(C)(C)O)nc3)cc12)c1cc(C#N)ccc1F` [Example 376, (R)-3-(1-((3-chloro-6-(2-(2-hydroxypropan-2-yl)pyrimidin-5-yl)quinolin-4-yl)amino)ethyl)-4-fluorobenzonitrile], the IC50 is less than 1 µM.

Still in this test, the particulars now being: TNFα 0.5 ng/mL, HEK-Blue-CD40L cells, 18 h; read-out: TNF induced HEK-Blue assay IC50 value.
`CCC(Nc1c(Cl)cnc2ccc(-c3ccc(C(C)(C)O)cc3)cc12)c1nc(C(N)=O)ccc1F` (racemic) [Example 24, 6-(1-((3-chloro-6-(4-(2-hydroxypropan-2-yl)phenyl)quinolin-4-yl)amino)propyl)-5-fluoropicolinamide]: the IC50 was less than 1 µM.
As for `CC(C)(O)c1ncc(-c2nc3c(N[C@@H](c4cc(C#N)ccc4F)C(F)F)c(Cl)cnc3cc2F)cn1` [Example 498, (S)-3-(1-((3-chloro-7-fluoro-6-(2-(2-hydroxypropan-2-yl)pyrimidin-5-yl)-1,5-naphthyridin-4-yl)amino)-2,2-difluoroethyl)-4-fluorobenzonitrile], the concentration for half-maximal inhibition (IC50) was less than 1 µM.
With `CC(Nc1c(Cl)cnc2ccc(-c3ccc(C(C)(C)O)cc3)cc12)c1ccoc1` (racemic) [Example 204, 2-(4-(3-chloro-4-((1-(furan-3-yl)ethyl)amino)quinolin-6-yl)phenyl)propan-2-ol], the IC50 is less than 1 µM.
Turning to `COc1cc(-c2ccc(F)c([C@@H](C)Nc3c(Cl)cnc4ccccc34)c2)c(OC)nn1` [Example 513, (R)-3-chloro-N-(1-(5-(3,6-dimethoxypyridazin-4-yl)-2-fluorophenyl)ethyl)quinolin-4-amine], the concentration for half-maximal inhibition (IC50) was in the range of 1 to 10 µM.
On to `C[C@@H](Nc1c(Cl)cnc2ccccc12)c1cc(-c2cncc(N)c2)ccc1F` [Example 511, (R)—N-(1-(5-(5-aminopyridin-3-yl)-2-fluorophenyl)ethyl)-3-chloroquinolin-4-amine], for which the IC50 is less than 1 µM.
Same read-out and setting: under `Cc1nc2ccc(-c3cnc(C(C)(C)O)nc3)cc2c(N[C@@H](c2cc(C(O)CO)ccc2F)C(F)F)c1Cl` (mixture of isomers) [Example 402, 1-(3-((S)-1-((3-chloro-6-(2-(2-hydroxypropan-2-yl)pyrimidin-5-yl)-2-methylquinolin-4-yl)amino)-2,2-difluoroethyl)-4-fluorophenyl)ethane-1,2-diol] stands less than 1 µM; under `COc1cncc(-c2ccc(F)c([C@@H](C)Nc3c(Cl)cnc4ccccc34)c2)c1` [Example 522, (R)-3-chloro-N-(1-(2-fluoro-5-(5-methoxypyridin-3-yl)phenyl)ethyl)quinolin-4-amine], less than 1 µM; under `C[C@@H](Nc1c(Cl)cnc2cc(F)c(-c3cnc(C4CCN(CC(=O)O)CC4)nc3)cc12)c1ccccc1F` [Example 594, (R)-2-(4-(5-(3-chloro-7-fluoro-4-((1-(2-fluorophenyl)ethyl)amino)quinolin-6-yl)pyrimidin-2-yl)piperidin-1-yl)acetic acid], less than 1 µM.
As for `Cc1nc2ccc(-c3cnc(C(C)(C)O)nc3)cc2c(N[C@H](C)c2cc(-c3cc[nH]n3)ccc2F)c1Cl` [Example 336, (R)-2-(5-(3-chloro-4-((1-(2-fluoro-5-(1H-pyrazol-3-yl)phenyl)ethyl)amino)-2-methylquinolin-6-yl)pyrimidin-2-yl)propan-2-ol], the IC50 was less than 1 µM.
Regarding `CC(C)(O)c1ncc(-c2ccc3ncc(Cl)c(NC4(c5ccccc5F)CC4)c3c2)cn1` [Example 158, 2-(5-(3-chloro-4-((1-(2-fluorophenyl)cyclopropyl)amino)quinolin-6-yl)pyrimidin-2-yl)propan-2-ol], the half-maximal inhibitory concentration (IC50) was less than 1 µM.
The same measure, in the same setting: under `Cc1ccc(C)c(Nc2c(Cl)c(CN)nc3ccc(-c4ccc(C#N)nc4)cc23)c1` [Example 43, 5-(2-(aminomethyl)-3-chloro-4-((2,5-dimethylphenyl)amino)quinolin-6-yl)picolinonitrile] stands 1 to 10 µM.
On the same count and under the same terms, under `C[C@@H](Nc1c(Cl)cnc2ccc(-c3cnc(N4CCN([C@@H](CN)C(=O)O)CC4)nc3)cc12)c1ccccc1F` [Example 94, (S)-3-amino-2-(4-(5-(3-chloro-4-(((R)-1-(2-fluorophenyl)ethyl)amino)quinolin-6-yl)pyrimidin-2-yl)piperazin-1-yl)propanoic acid] stands less than 1 µM; under `CC(C)(O)c1ncc(-c2ccc3ncc(Cl)c(NC(c4ccccc4F)C(F)F)c3c2)cn1` (single isomer, unassigned) [Example 55a], less than 1 µM.
With `COC(=O)CN1CCN(c2ncc(-c3ccc4ncc(Cl)c(N[C@H](C)c5ccccc5F)c4c3)cn2)CC1` [Example 224], the IC50 was less than 1 µM.
On to `C[C@@H](Nc1c(Cl)cnc2ccc(-c3cnc(C(C)(C)O)nc3)cc12)c1cccc(N2CCOCC2)c1` [Example 136, (R)-2-(5-(3-chloro-4-((1-(3-morpholinophenyl)ethyl)amino)quinolin-6-yl)pyrimidin-2-yl)propan-2-ol], for which the half-maximal inhibitory concentration (IC50) is less than 1 µM.
For the compound `CC(=O)NC(CO)c1ccc(-c2ccc3ncc(Cl)c(N[C@H](C)c4ccccc4F)c3c2)cc1` (stereo partly drawn) [Example 482, N-(1-(4-(3-chloro-4-(((R)-1-(2-fluorophenyl)ethyl)amino)quinolin-6-yl)phenyl)-2-hydroxyethyl)acetamide], the concentration for half-maximal inhibition (IC50) lay within 10 to 25 µM.
On the same count and under the same terms, to `CNS(=O)(=O)c1ccc(-c2cc(Cl)c3ncc(Cl)c(NC(C)c4ccccc4F)c3c2)cc1` (racemic) [Example 22, 4-(3,8-dichloro-4-((1-(2-fluorophenyl)ethyl)amino)quinolin-6-yl)-N-methylbenzenesulfonamide] belongs 10 to 25 µM; to `C[C@@H](Nc1c(Cl)cnc2ccc(-c3ccc(C4(N)CCC4)cc3)cc12)c1ccccc1F` [Example 118, (R)-6-(4-(1-aminocyclobutyl)phenyl)-3-chloro-N-(1-(2-fluorophenyl)ethyl)quinolin-4-amine], less than 1 µM.
On the same count and under the same terms, under `Cc1ccc(C)c(Nc2c(Cl)c(C(=O)O)nc3ccc(-c4ccc(C#N)nc4)cc23)c1` [Example 31, 3-chloro-6-(6-cyanopyridin-3-yl)-4-((2,5-dimethylphenyl)amino)quinoline-2-carboxylic acid] stands 1 to 10 µM.
Regarding `CC(Nc1c(Cl)cnc2cc(F)c(-c3cnc(N4CCN(C(=O)[C@H](N)CC(=O)O)CC4)nc3)cc12)c1ccccc1F` (single isomer, unassigned) [Example 607], the IC50 is less than 1 µM.
Consider `Cc1ccc(C)c(NCc2nc3ccc(-c4ccc(C#N)nc4)cc3c(Nc3cc(C)ccc3C)c2Cl)c1` [Example 3, 5-(3-chloro-4-((2,5-dimethylphenyl)amino)-2-(((2,5-dimethylphenyl)amino)methyl)quinolin-6-yl)picolinonitrile], for which the concentration for half-maximal inhibition (IC50) is 1 to 10 µM.
Same read-out and setting: to `CNC(=O)c1ccc(-c2ccc3nc(C)c(Cl)c(Nc4cc(C)ccc4C)c3c2)cn1` [Example 8, 5-(3-chloro-4-((2,5-dimethylphenyl)amino)-2-methylquinolin-6-yl)-N-methylpicolinamide] belongs less than 1 µM.
Still for that read-out and setting: under `CC(=O)NC1CCC(O)(c2ncc(-c3ccc4ncc(Cl)c(N[C@H](C)c5ccccc5F)c4c3)cn2)CC1` (stereo partly drawn) [Example 131, (R)—N-(4-(5-(3-chloro-4-((1-(2-fluorophenyl)ethyl)amino)quinolin-6-yl)pyrimidin-2-yl)-4-hydroxycyclohexyl)acetamide] stands 1 to 10 µM.
On the same count and under the same terms, under `CC(C)(O)c1ncc(-c2cc3c(NC4(c5ccccc5F)CCC4)c(Cl)cnc3cc2F)cn1` [Example 609, 2-(5-(3-chloro-7-fluoro-4-((1-(2-fluorophenyl)cyclobutyl)amino)quinolin-6-yl)pyrimidin-2-yl)propan-2-ol] stands 1 to 10 µM.
With `Cc1nc2cc(F)c(-c3cnc(C(C)(C)O)nc3)cc2c(N[C@H](C)c2cc(CCC(=O)O)ccc2F)c1Cl` [Example 446, (R)-3-(3-(1-((3-chloro-7-fluoro-6-(2-(2-hydroxypropan-2-yl)pyrimidin-5-yl)-2-methylquinolin-4-yl)amino)ethyl)-4-fluorophenyl)propanoic acid], the IC50 is 1 to 10 µM.
For `C[C@@H](Nc1c(Cl)cnc2ccc(-c3cnc(C(C)(C)O)nc3)cc12)c1cc(-c2cc(C(=O)O)[nH]n2)ccc1F` [Example 428, (R)-3-(3-(1-((3-chloro-6-(2-(2-hydroxypropan-2-yl)pyrimidin-5-yl)quinolin-4-yl)amino)ethyl)-4-fluorophenyl)-1H-pyrazole-5-carboxylic acid], the IC50 lay within 10 to 25 µM.
On the same count and under the same terms, under `O=C(O)CC1CN(c2ncc(-c3ccc4ncc(Cl)c(N[C@@H](c5ccccc5F)C(F)F)c4c3)cn2)CCN1` (mixture of isomers) [Example 77, 2-(4-(5-(3-chloro-4-(((S)-2,2-difluoro-1-(2-fluorophenyl)ethyl)amino)quinolin-6-yl)pyrimidin-2-yl)piperazin-2-yl) acetic acid] stands less than 1 µM.
Consider `C[C@@H](Nc1c(Cl)cnc2cc(F)c(-c3cnc(C(C)(C)O)nc3)nc12)c1cc(C#N)ccc1F` [Example 590, (R)-3-(1-((3-chloro-7-fluoro-6-(2-(2-hydroxypropan-2-yl)pyrimidin-5-yl)-1,5-naphthyridin-4-yl)amino)ethyl)-4-fluorobenzonitrile], for which the 50% inhibitory concentration (IC50) is less than 1 µM.
Regarding `Cc1cnc2ccc(-c3cnc(C(C)(C)O)nc3)cc2c1N[C@H](C)c1ccccc1F` [Example 240, (R)-2-(5-(4-((1-(2-fluorophenyl)ethyl)amino)-3-methylquinolin-6-yl)pyrimidin-2-yl)propan-2-ol], the IC50 was less than 1 µM.
`O=C(O)CNCc1ccc(-c2ccc3ncc(Cl)c(N[C@@H](c4ccccc4F)C(F)F)c3c2)cc1` [Example 13, (S)-(4-(3-chloro-4-((2,2-difluoro-1-(2-fluorophenyl)ethyl)amino)quinolin-6-yl)benzyl)glycine]: the IC50 is 10 to 25 µM.

Broadly, the IC50 is the concentration at which inhibition is half-maximal.
